Results: patent US7956062B2, “Reactive oxygen generating enzyme inhibitor with nitric oxide bioactivity and uses thereof” (Duke University, priority 2004, dated 2011)

Tests used:
[1] = system: Isolated cardiac myocytes from nNOS deficient rats; assay: Isolated cardiac myocytes: sarcomere length and systolic calcium transient responses; format: cell-based; settings: versus baseline; for sarcomere length (SL), a measure of myocardial contraction (% change from baseline): FIG. 1A; for systolic calcium transient (% change from baseline): FIG. 1B
Protocol: Isolated cardiac myocytes from nNOS deficient rats (known to have increased xanthine oxidase activity), were evaluated for responses at baseline (BL or bl), then to allopurinol, then to nitrated allopurinol. The concentration of allopurinol used was 0.5×10^−3 M. The concentration of nitrated allopurinol used was 10^−4M. Evaluation was carried out for sarcomere length (SL), a measure of myocardial contraction, and for systolic calcium transient which drives myocardial contraction. The results for evaluation of sarcomere length are shown in FIG. 1A and results for evaluation of systolic calcium transient are shown in FIG. 1B.

[2] = system: dilated cardiomyopathy; assay: Patient case, dilated cardiomyopathy (Working Example II); format: in vivo; settings: 300 mg PO BID, over the ensuing week
Excerpt: A person presents with a dilated cardiomyopathy and is begun on a standard regimen including ace inhibitors, diuretics, and digoxin with little improvement.

[3] = system: class 3 angina; assay: Patient case, class 3 angina (Working Example III); format: in vivo; settings: 300 mg/day; over two weeks; class 3 before treatment
Protocol: A person with class 3 angina is begun on nitrated allopurinol (16), 300 mg/day.

[4] = system: crush wound to their left lower extremity, ischemic for six hours; assay: Patient case, ischemic crush wound with revascularization (Working Example IV); format: in vivo; settings: emergency surgery
Excerpt: A person has a crush wound to their left lower extremity and undergoes emergency surgery.

[5] = system: sickle cell disease; assay: Patient case, sickle cell disease (Working Example V); format: in vivo; settings: 300 mg/day, over the following year
Protocol: A person with sickle cell disease presents with pulmonary hypertension and LFT abnormalities. They had had four admissions to the emergency in the past year with painful crisis. They are begun n 300 mg/day of nitrated allopurinol (16) with a decrease in their pulmonary artery pressure over the following year from a mean of 35 mm Hg to 30 mm Hg.

[6] = system: hyperlipidemia; assay: Patient case, hyperlipidemia with calcification of coronaries and aorta (Working Example VI); format: in vivo; settings: 300 mg/day; over the following two years
[7] = system: bleomycin-induced lung injury; assay: Patient case, bleomycin-induced lung injury (Working Example VII); format: in vivo; settings: 300 PO BID; over the following week; on 50% oxygen; from 60 (on 100% oxygen)
Excerpt: A person with bleomycin-induced lung injury is begun on nitrated allopurinol (16), 300 PO BID. The PO2 improves from 60 (on 100% oxygen) to 65 mm Hg on 50% oxygen over the following week.

[8] = system: congestive heart failure and a dilated cardiomyopathy; assay: Patient case, congestive heart failure and dilated cardiomyopathy (Working Example IX); format: in vivo; settings: 300 mg POQD, one week later
Protocol: A person with congestive heart failure and a dilated cardiomyopathy is begun on nitrated allopurinol (16), 300 mg POQD. One week later, their ejection fraction had improved from 35% to 40%, their blood pressure had decreased from 130/80 to 110/80, and […] pO2 has improved from 70 to 80 mm Hg on room air.

[9] = system: Parkinson's disease; assay: Patient case, Parkinson's disease (Working Example X); format: in vivo; settings: 300 mg/day; after three weeks; treated with L-dopa
Excerpt: A person with Parkinson's disease treated with L-dopa has persistent tremor and motor problems.

[10] = system: Alzheimer's disease; assay: Patient case, Alzheimer's disease (Working Example XI); format: in vivo; settings: 300 mg/day; after 3 months
Protocol: A person with Alzheimer's disease is begun on 300 mg/day nitrated allopurinol (16). Their memory and cognitive function stabilizes after 3 months.

[11] = system: leg pain and diabetes; assay: Patient case, leg pain and diabetes (Working Example XII); format: in vivo; settings: 300 mg/day
[12] = system: ALS; assay: Patient case, ALS (Working Example XIII); format: in vivo; settings: 300 mg/day; after three weeks
Protocol: A person with ALS with progressive deterioration, stabilizes after three weeks at 300 mg/day of nitrated allopurinol (16).

[13] = system: asthmatic with frequent exacerbations; assay: Patient case, asthma (Working Example XIV); format: in vivo; settings: 300 mg/day
Protocol: A asthmatic with frequent exacerbations is begun on 300 mg/day nitrated allopurinol (16).

## Oc1ncnc2[nH]ncc12 [allopurinol, reference compound]
[1]; allopurinol 0.5×10^−3 M
  sarcomere length (SL), a measure of myocardial contraction (% change from baseline): rise
  systolic calcium transient (% change from baseline): rise

## O=c1c2cnn(CCCO[N+](=O)[O-])c2ncn1CCCO[N+](=O)[O-] [nitrated allopurinol (16), 1,5-bis(3-nitrooxypropyl)-1,5-dihydro-4H-pyrazolo[3,4-d]pyrimidin-4-one]
[1]; nitrated allopurinol 10^−4M
  sarcomere length (SL), a measure of myocardial contraction (% change from baseline): increase obtained for nitrated allopurinol being greater than increase obtained for allopurinol
  systolic calcium transient (% change from baseline): increase obtained for nitrated allopurinol being greater than increase obtained for allopurinol
[2]
  shortness of breath: decrease in a shortness of breath
[2]; on standard regimen with little improvement
  left ventricular function: improvement of left ventricular function
[3]
  angina classification: improved to class 2
[4]
  aggravation of injury following revascularization: no aggravation of injury following revascularization
[5]
  LFT abnormalities: resolve
[5]; four admissions with painful crisis in the past year
  painful crisis: only one painful crisis
[5]; from a mean of 35 mm Hg
  pulmonary artery pressure (mean): 30 mm Hg
[6]
  disease (calcification of coronaries and aorta): mild regression of their disease
[7]
  PO2: 65 mm Hg
[8]
  symptoms on angina: decreased
[8]; from 35%
  ejection fraction: 40%
[8]; from 130/80
  blood pressure: 110/80
[8]; on room air, from 70
  pO2: 80 mm Hg
[9]
  symptoms (persistent tremor and motor problems): symptoms improve
[10]
  memory and cognitive function: stabilizes
[11]
  pain (leg pain): pain decreases
[11]; unresponsive to treatment before
  distance they can walk: improves
[12]
  progressive deterioration: stabilizes
[13]
  steroid use: successfully tapered
